Results published in ChEMBL document CHEMBL1154382, “Preliminary SAR analysis of novel antiproliferative N(6),5'-bis-ureidoadenosine derivatives” (2009).

Tests used:
Assay type in all cases: functional
[1] = tested on: EKVX; assay: Antiproliferative activity against human EKVX cells at 10 uM assessed as cell growth inhibition relative to control; conditions: values are per cent of control
[2] = tested on: PC-3; assay: Antiproliferative activity against human PC3 cells at 10 uM assessed as cell growth inhibition relative to control; conditions: values are per cent of control
[3] = tested on: K562; assay: Antiproliferative activity against human K562 cells
[4] = tested on: MOLT-4; assay: Antiproliferative activity against human MOLT4 cells
[5] = tested on: A549; assay: Antiproliferative activity against human A549 cells
[6] = tested on: EKVX; assay: Antiproliferative activity against human EKVX cells
[7] = tested on: HOP-92; assay: Antiproliferative activity against human HOP92 cells
[8] = tested on: NCI-H23; assay: Antiproliferative activity against human NCI-H23 cells
[9] = tested on: HCC 2998; assay: Antiproliferative activity against human HCC2998 cells
[10] = tested on: HCT-116; assay: Antiproliferative activity against human HCT116 cells
[11] = tested on: HT-29; assay: Antiproliferative activity against human HT-29 cells
[12] = tested on: Malme-3M; assay: Antiproliferative activity against human MALME-3M cells
[13] = tested on: M14; assay: Antiproliferative activity against human M14 cells
[14] = tested on: SK-MEL-2; assay: Antiproliferative activity against human SK-MEL-2 cells
[15] = tested on: SK-MEL-5; assay: Antiproliferative activity against human SK-MEL-5 cells
[16] = tested on: UACC-257; assay: Antiproliferative activity against human UACC257 cells
[17] = tested on: UACC-62; assay: Antiproliferative activity against human UACC62 cells
[18] = tested on: SNB-75; assay: Antiproliferative activity against human SNB75 cells
[19] = tested on: U-251; assay: Antiproliferative activity against human U251 cells
[20] = tested on: OVCAR-3; assay: Antiproliferative activity against human OVCAR-3 cells
[21] = tested on: OVCAR-4; assay: Antiproliferative activity against human OVCAR4 cells
[22] = tested on: SK-OV-3; assay: Antiproliferative activity against human SKOV3 cells
[23] = tested on: 786-0; assay: Antiproliferative activity against human 786-0 cells
[24] = tested on: ACHN; assay: Antiproliferative activity against human ACHN cells
[25] = tested on: CAKI-1; assay: Antiproliferative activity against human Caki1 cells
[26] = tested on: SN12C; assay: Antiproliferative activity against human SN12C cells
[27] = tested on: TK-10; assay: Antiproliferative activity against human TK10 cells
[28] = tested on: UO-31; assay: Antiproliferative activity against human UO31 cells
[29] = tested on: BT-549; assay: Antiproliferative activity against human BT549 cells
[30] = Antiproliferative activity against human Hs 578T cells
[31] = tested on: MCF7; assay: Antiproliferative activity against human MCF7 cells
[32] = tested on: MDA-MB-231; assay: Antiproliferative activity against human MDA-MB-231 cells
[33] = tested on: MDA-MB-435; assay: Antiproliferative activity against human MDA-MB-435 cells
[34] = tested on: PC-3; assay: Antiproliferative activity against human PC3 cells
[35] = tested on: NCI-H226; assay: Antiproliferative activity against human NCI-H226 cells at 10 uM assessed as cell growth inhibition relative to control; conditions: values are per cent of control
[36] = tested on: NCI-H23; assay: Antiproliferative activity against human NCI-H23 cells at 10 uM assessed as cell growth inhibition relative to control; conditions: values are per cent of control
[37] = tested on: NCI-H322M; assay: Antiproliferative activity against human NCI-H322M cells at 10 uM assessed as cell growth inhibition relative to control; conditions: values are per cent of control
[38] = tested on: NCI-H522; assay: Antiproliferative activity against human NCI-H522 cells at 10 uM assessed as cell growth inhibition relative to control; conditions: values are per cent of control
[39] = tested on: HCT-116; assay: Antiproliferative activity against human HCT116 cells at 10 uM assessed as cell growth inhibition relative to control; conditions: values are per cent of control
[40] = tested on: HCT-15; assay: Antiproliferative activity against human HCT15 cells at 10 uM assessed as cell growth inhibition relative to control; conditions: values are per cent of control
[41] = tested on: HT-29; assay: Antiproliferative activity against human HT-29 cells at 10 uM assessed as cell growth inhibition relative to control; conditions: values are per cent of control
[42] = tested on: KM12; assay: Antiproliferative activity against human KM12 cells at 10 uM assessed as cell growth inhibition relative to control; conditions: values are per cent of control
[43] = tested on: LOX IMVI; assay: Antiproliferative activity against human LOXIMVI cells at 10 uM assessed as cell growth inhibition relative to control; conditions: values are per cent of control
[44] = tested on: SK-MEL-28; assay: Antiproliferative activity against human SK-MEL-28 cells at 10 uM assessed as cell growth inhibition relative to control; conditions: values are per cent of control
[45] = tested on: SK-MEL-5; assay: Antiproliferative activity against human SK-MEL-5 cells at 10 uM assessed as cell growth inhibition relative to control; conditions: values are per cent of control
[46] = tested on: UACC-62; assay: Antiproliferative activity against human UACC62 cells at 10 uM assessed as cell growth inhibition relative to control; conditions: values are per cent of control
[47] = tested on: SF-268; assay: Antiproliferative activity against human SF268 cells at 10 uM assessed as cell growth inhibition relative to control; conditions: values are per cent of control
[48] = tested on: SNB-19; assay: Antiproliferative activity against human SNB19 cells at 10 uM assessed as cell growth inhibition relative to control; conditions: values are per cent of control
[49] = tested on: SNB-75; assay: Antiproliferative activity against human SNB75 cells at 10 uM assessed as cell growth inhibition relative to control; conditions: values are per cent of control
[50] = tested on: U-251; assay: Antiproliferative activity against human U251 cells at 10 uM assessed as cell growth inhibition relative to control; conditions: values are per cent of control
[51] = tested on: OVCAR-3; assay: Antiproliferative activity against human OVCAR-3 cells at 10 uM assessed as cell growth inhibition relative to control; conditions: values are per cent of control
[52] = tested on: OVCAR-4; assay: Antiproliferative activity against human OVCAR4 cells at 10 uM assessed as cell growth inhibition relative to control; conditions: values are per cent of control
[53] = tested on: OVCAR-5; assay: Antiproliferative activity against human OVCAR5 cells at 10 uM assessed as cell growth inhibition relative to control; conditions: values are per cent of control
[54] = tested on: OVCAR-8; assay: Antiproliferative activity against human OVCAR8 cells at 10 uM assessed as cell growth inhibition relative to control; conditions: values are per cent of control
[55] = tested on: SK-OV-3; assay: Antiproliferative activity against human SKOV3 cells at 10 uM assessed as cell growth inhibition relative to control; conditions: values are per cent of control
[56] = tested on: ACHN; assay: Antiproliferative activity against human ACHN cells at 10 uM assessed as cell growth inhibition relative to control; conditions: values are per cent of control
[57] = tested on: CAKI-1; assay: Antiproliferative activity against human Caki1 cells at 10 uM assessed as cell growth inhibition relative to control; conditions: values are per cent of control
[58] = tested on: SN12C; assay: Antiproliferative activity against human SN12C cells at 10 uM assessed as cell growth inhibition relative to control; conditions: values are per cent of control
[59] = tested on: TK-10; assay: Antiproliferative activity against human TK10 cells at 10 uM assessed as cell growth inhibition relative to control; conditions: values are per cent of control
[60] = tested on: UO-31; assay: Antiproliferative activity against human UO31 cells at 10 uM assessed as cell growth inhibition relative to control; conditions: values are per cent of control
[61] = tested on: MCF7; assay: Antiproliferative activity against human MCF7 cells at 10 uM assessed as cell growth inhibition relative to control; conditions: values are per cent of control
[62] = tested on: MDA-MB-231; assay: Antiproliferative activity against human MDA-MB-231 cells at 10 uM assessed as cell growth inhibition relative to control; conditions: values are per cent of control
[63] = tested on: MDA-MB-468; assay: Antiproliferative activity against human MDA-MB-468 cells at 10 uM assessed as cell growth inhibition relative to control; conditions: values are per cent of control

In the case of CCOC(=O)C[C@H]1[C@@H](O[Si](C)(C)C(C)(C)C)[C@H](n2cnc3c(NC(=O)Nc4ccccc4)ncnc32)O[C@@H]1COC(=O)NC, the growth, % of control at 10 µM [1] is reported as 68%, the growth, % of control at 10 µM [2] is reported as 32% and the GI50 [3] is reported as 3.09 µM. The GI50 [4] was 1.99 µM, the GI50 [5] was 6.93 µM and the GI50 [6] was 3.39 µM. It also gave a GI50 [7] of 6.52 µM, a GI50 [8] of 12.9 µM and a GI50 [9] of 8.76 µM. The GI50 [10] was 2.33 µM, the GI50 [11] was 3.97 µM and the GI50 [12] was 3.34 µM. The GI50 [13] was 6.37 µM, the GI50 [14] was 13.2 µM and the GI50 [15] was 5.7 µM. For the same compound, the GI50 [16] was 20.8 µM, the GI50 [17] was 15.8 µM and the GI50 [18] was 10.3 µM. It also gave a GI50 [19] of 7.57 µM, a GI50 [20] of 2.42 µM and a GI50 [21] of 10.7 µM. For the same compound, the GI50 [22] was 40.4 µM, the GI50 [23] was 7.94 µM and the GI50 [24] was 5.92 µM. It also gave a GI50 [25] of 3.72 µM, a GI50 [26] of 2.17 µM and a GI50 [27] of 10.7 µM. The GI50 [28] was 5.7 µM, the GI50 [29] was 2.07 µM and the GI50 [30] was 3.39 µM. The GI50 [31] was 3.37 µM, the GI50 [32] was 17.5 µM and the GI50 [33] was 3.26 µM. It also gave a GI50 [34] of 2.87 µM, a growth, % of control at 10 µM [35] of 56% and a growth, % of control at 10 µM [36] of 88%. The growth, % of control at 10 µM [37] was 91%, the growth, % of control at 10 µM [38] was 45% and the growth, % of control at 10 µM [39] was 17%. It also gave a growth, % of control at 10 µM [40] of 52%, a growth, % of control at 10 µM [41] of 9% and a growth, % of control at 10 µM [42] of 31%. It also gave a growth, % of control at 10 µM [43] of 49%, a growth, % of control at 10 µM [44] of 72% and a growth, % of control at 10 µM [45] of 24%. The growth, % of control at 10 µM [46] was 65%, the growth, % of control at 10 µM [47] was 60% and the growth, % of control at 10 µM [48] was 99%. The growth, % of control at 10 µM [49] was 45%, the growth, % of control at 10 µM [50] was 52% and the growth, % of control at 10 µM [51] was 51%. For the same compound, the growth, % of control at 10 µM [52] was 42%, the growth, % of control at 10 µM [53] was 94% and the growth, % of control at 10 µM [54] was 74%. It also gave a growth, % of control at 10 µM [55] of 95%, a growth, % of control at 10 µM [56] of 26% and a growth, % of control at 10 µM [57] of 61%. For the same compound, the growth, % of control at 10 µM [58] was 35%, the growth, % of control at 10 µM [59] was 88% and the growth, % of control at 10 µM [60] was 42%. The growth, % of control at 10 µM [61] was 12%, the growth, % of control at 10 µM [62] was 72% and the growth, % of control at 10 µM [63] was 62%.
